Molecules are shown by their SMILES.

The target in the test is T1, HDAC6 (Homo sapiens, UniProt Q9UBN7).
T1 construct: Full length human recombinant HDAC6 protein were expressed in baculoviral system; made in house
T1 sequence (Q9UBN7 1-1215): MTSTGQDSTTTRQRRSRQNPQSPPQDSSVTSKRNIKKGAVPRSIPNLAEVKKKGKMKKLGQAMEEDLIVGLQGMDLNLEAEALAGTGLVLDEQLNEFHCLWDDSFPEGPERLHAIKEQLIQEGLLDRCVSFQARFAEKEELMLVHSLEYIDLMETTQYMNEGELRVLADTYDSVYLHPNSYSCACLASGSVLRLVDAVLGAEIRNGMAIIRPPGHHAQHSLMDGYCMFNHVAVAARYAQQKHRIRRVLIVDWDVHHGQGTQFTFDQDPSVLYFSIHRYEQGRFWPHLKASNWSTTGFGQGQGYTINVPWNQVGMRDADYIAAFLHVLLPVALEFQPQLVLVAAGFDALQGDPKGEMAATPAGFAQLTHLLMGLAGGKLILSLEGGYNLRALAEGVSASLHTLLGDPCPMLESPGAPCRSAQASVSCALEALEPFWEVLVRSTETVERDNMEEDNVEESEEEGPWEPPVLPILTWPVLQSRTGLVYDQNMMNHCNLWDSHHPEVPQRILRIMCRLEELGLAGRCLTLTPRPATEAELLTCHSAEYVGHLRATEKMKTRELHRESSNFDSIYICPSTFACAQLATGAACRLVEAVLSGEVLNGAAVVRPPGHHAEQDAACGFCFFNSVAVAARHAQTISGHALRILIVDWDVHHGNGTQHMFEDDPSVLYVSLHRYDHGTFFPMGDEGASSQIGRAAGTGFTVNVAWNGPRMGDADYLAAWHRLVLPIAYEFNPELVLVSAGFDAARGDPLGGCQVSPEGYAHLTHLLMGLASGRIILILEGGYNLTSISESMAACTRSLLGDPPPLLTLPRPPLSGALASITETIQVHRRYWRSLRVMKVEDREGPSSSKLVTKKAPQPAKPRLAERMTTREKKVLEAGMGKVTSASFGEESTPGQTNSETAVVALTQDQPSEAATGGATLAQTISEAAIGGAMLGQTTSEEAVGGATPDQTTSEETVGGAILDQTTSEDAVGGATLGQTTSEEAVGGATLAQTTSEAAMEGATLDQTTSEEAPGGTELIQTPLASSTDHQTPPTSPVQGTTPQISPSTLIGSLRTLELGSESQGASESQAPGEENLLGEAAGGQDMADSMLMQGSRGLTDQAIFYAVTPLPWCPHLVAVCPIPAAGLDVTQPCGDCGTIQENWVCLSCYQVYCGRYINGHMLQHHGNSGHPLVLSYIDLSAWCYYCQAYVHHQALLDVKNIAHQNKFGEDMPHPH
The test can be described thus: In vitro histone deacetylase assay: enzymatic HDAC6 electrophoretic mobility shift assay. The following applies: full length human recombinant HDAC6, 1 nM enzyme, 2 μM peptide substrate RHKK(Ac)-NH2, 25° C.; read-out: Inhibitory Concentration (IC50) against HDAC6, Activity Range. It is filed as biochemical. As for the experimental part:
The enzymatic HDAC6 assay was performed using electrophoretic mobility shift assay. Full length human recombinant HDAC6 protein were expressed in baculoviral system and purified by affinity chromatography. The enzymatic reactions were assembled in 384 well plates in a total volume of 25 μL in a reaction buffer composing: 100 mM HEPES, pH7.5, 25 mM KCl, 0.1% bovine serum albumin, 0.01% Triton X-100, 1% DMSO (from compounds) 2 μM of the fluorescently labeled peptide substrate and enzyme. The enzyme was added at a final concentration of 1 nM. The peptide substrate RHKK(Ac)—NH2 was used. The compounds were tested at 12 concentrations spaced by 3× dilution intervals. Negative control samples (0%-inhibition in the absence of inhibitor) and positive control samples (100%-inhibition) were assembled in replicates of four in each assay plate. The reactions were incubated at 25° C. and quenched by the addition of 45 μL of termination buffer (100 mM HEPES, pH 7.5, 0.01% Triton X-100, 0.05% SDS).
The terminated assay plates were analyzed on LabChip® 3000 microfluidic electrophoresis instrument (Perkin Elmer/Caliper Life Sciences). The fluorescence intensity of the electrophoretically separated de-acetylated product and substrate peptide were measured. Activity in each sample was determined as the product to sum ratio (PSR): P/(S+P), where P is the peak height of the product peptide and S is the peak height of the substrate peptide. Percent inhibition (Pinh) was determined using the following equation:
Pinh=(PSR0%−PSRinh)/(PSR0%−PSR100%)*100, where PSRinh is the product sum ratio in the presence of inhibitor, PSR0% is the average product sum ration in the absence of inhibitor and PSR100% is the average product sum ratio in 100%-inhibition control samples. The IC50 values of inhibitors are determined by fitting the %-inhibition curves with 4 parameter dose-response model using XLfit 4 software.
For orientation: A gel shift assay detects complexes by their altered migration in electrophoresis.
As for `O=C(NO)c1ccc2c(c1)OCCCNC2` [N-hydroxy-3,4,5,6-tetrahydro-2H-benzo[b][1,5]oxazocine-9-carboxamide], the IC50 is greater than 500 nM.
With `O=C(NO)c1ccc2c(c1)OCCCN(C(=O)C1CCOCC1)C2` [N-hydroxy-5-(tetrahydro-2H-pyran-4-carbonyl)-3,4,5,6-tetrahydro-2H-benzo[b][1,5]oxazocine-9-carboxamide], the IC50 fell in the range of 100 to 500 nM.
On to `CC1(C(=O)N2CCCOc3cc(C(=O)NO)ccc3C2)CCOCC1` [N-hydroxy-5-(4-methyltetrahydro-2H-pyran-4-carbonyl)-3,4,5,6-tetrahydro-2H-benzo[b][1,5]oxazocine-9-carboxamide], for which the IC50 was no more than 100 nM.

The record behind these values is patent publication US12304904B2, “Bicyclic [4,6,0] hydroxamic acids as HDAC inhibitors” (Valo Health, Inc., priority 2015, dated 2025).
